Data set [1] has as its system rats with middle cerebral artery occlusion (MCAO). As to the kind of experiment: Hindlimb placing test, MCAO rats, double crossover study (Example 2). Format: in vivo, Sprague Dawley rat. Also on record: Hindlimb Placing Total Score, individual animals / Hindlimb Placing Total Score, Mean: scale not given here. The settings on record: for Hindlimb Placing Total Score, individual animals: one value per rat; for Hindlimb Placing Total Score, Mean: N 15. The procedure:
4-AP was evaluated for its ability to promote functional sensorimotor improvement following ischemic stroke in rats with stable motor deficits at times remote from their ischemic events. The animal model mimics the conditions in human ischemic stroke and is produced by middle cerebral artery occlusion (MCAO), which results in extensive infarction in cerebral cortex and striatum, including the cortical spinal tract (white matter).
In particular, the MCAO model in Sprague Dawley rats that was utilized in the experiments presented below mimics the conditions in human ischemic stroke. In this model, focal cerebral infarcts were made by permanent occlusion of the proximal right middle cerebral artery (MCA) using a modification of the method of Tamura et al. (No To Shinkei 1986; 38:747-51). Briefly, the temporalis muscle was bisected and reflected through an incision made midway between the eye and the ear canal. The proximal MCA was exposed through a subtemporal craniectomy without removing the zygomatic arch and without transecting the facial nerve.
Dosing and Treatment: Rats were treated in accordance with the dosing schedule shown in Tables 2A, 2B, 3 and FIG. 2, with each Phase being a two week period of time. A solution of 4-AP was used in this experiment. Dosing was started at 4 weeks after ischemic event. 4-aminopyridine was dissolved in water for injection (WFI, Cellgro) and sterile filtered. Final concentrations of 0.315 mg/mL or 1.0 mg/mL of 4-aminopyridine were delivered at 2 mL/kg by gastric gavage, resulting in final doses of 0.63 mg/kg and 2 mg/kg respectively. Vehicle control treatment was WFI delivered at 2 mL/kg by gastric gavage. This study was divided into three treatment phases (1-3) with each randomized cohort of animals receiving a different dose level during each of the treatment phases. Starting on day 30 after MCAO (Day 30, start of phase 1), the animals received gavage dosing of solutions (2 mL/kg) approximately 12 hours apart, for a total of five doses. The same schedule was repeated with different treatment on Day 44 and Day 58 for phase 2 and 3 of the study, respectively. Animals were not treated during the 10 days between phases (washout period).
Treatment groups: Dosing was started 4 weeks after MCAO surgery. During these 4 weeks, weekly behavioral assessments, as defined below, were performed. Two dose levels of 4-AP plus vehicle control were assessed, with treatment starting at 4 weeks after ischemic event. All dosing was via gastric gavage, volume not to exceed 2 mL/kg. Animals were given the first dose and behavioral assessments were performed starting 60 minutes after dosing. Animals then received the second dose that day at the appropriate time and b.i.d (preferably every 12 hours) thereafter for 2 more days (3 total days of dosing, 5 total doses). One hour after the 5th dose, animals were subjected to behavioral assessments as defined below. Following the final behavioral assessment, drug was withdrawn for 10 or 11 days, behavior was re-assessed, and then animals were re-challenged with a cross-over treatment (Phase 2 of Table 2B) as described in Tables 2A, 2B and 3, followed by the same behavioral testing and dosing regimen. This cross-over was repeated one more time as well (Phase 3 of Table 2B) (see FIG. 2).
Behavioral test details: Behavioral evaluations were done by evaluators blinded to treatment assignment. Blinded assessments of sensorimotor function were performed just prior to MCAO surgery, 24 hours after MCAO surgery and weekly thereafter until the first phase of dosing using limb placing and body swing behavioral tests. As described above, behavioral assessments were timed exactly with dosing times. Animals were tested one hour after the 1st and 5th doses of each phase (i.e., Days 30 and 32 of the first phase, Days 44 and 46 of the second phase; and Days 58 and 60 of the third phase); animals were also tested during the washout periods on Days 42 and 56. […]

The conditions of data set [2]: Hayes et al., J. Clin. Pharmacol. 2003; cited from earlier work.
The subject of a further data set is potassium channels. The settings on record: cited from earlier work.
The mark [3] stands for this setting: Group 3 (sequence vhl), D44 after MCAO, phase 2, high dose.
The mark [4] stands for this setting: Group 3 (sequence vhl), D46 after MCAO, phase 2, high dose.
[5] abbreviates: Group 3 (sequence vhl), D58 after MCAO, phase 3, low dose.
Setting [6] is: Group 3 (sequence vhl), D60 after MCAO, phase 3, low dose.

This is an account of results in US20160067232A1, “METHODS FOR TREATING A STROKE-RELATED SENSORIMOTOR IMPAIRMENT USING AMINOPYRIDINES” (Acorda Therapeutics, Inc., priority 2011, published 2016).

Each structure is given as a SMILES string. Where “and” joins values, the source holds several entries; their conditions need not be identical. Identical values can stand only once. Like-named read-outs stand apart in the source and are kept apart here.

For the compound `Nc1ccncc1` [4-aminopyridine], the “Hindlimb function, low dose compared to vehicle” value in data set [1] (0.63 mg/kg b.i.d. p.o., first mixed model, p=0.0027) was “significantly improved the hindlimb function”. For the same compound, the “Hindlimb function, high dose compared to vehicle” value in data set [1] (2 mg/kg b.i.d. p.o., first mixed model, p<0.0001) was “significantly improved the hindlimb function”. For the same compound, the “Hindlimb Placing Total Score, individual animals” value was 2.50 and 1.50 (6×) and 2.00 (5×) and 1.00 and 0.50 and 3.00 in data set [1] (Group 2 (sequence lvh), D30 after MCAO, phase 1, low dose); 2.00 (2×) and 1.00 (4×) and 1.50 (8×) and 0.50 in data set [1] (Group 2 (sequence lvh), D32 after MCAO, phase 1, low dose); 2.00 (2×) and 0.00 (5×) and 1.00 and 1.50 (4×) and 0.50 (3×) in data set [1] (Group 2 (sequence lvh), D58 after MCAO, phase 3, high dose); 0.50 (5×) and 0.00 (9×) and 1.00 in data set [1] (Group 2 (sequence lvh), D60 after MCAO, phase 3, high dose); 2.00 (2×) and 0.00 (3×) and 1.50 and 1.00 (2×) and 0.50 (2×) in data set [1] (setting [3]); 1.00 and 0.00 (6×) and 0.50 (3×) in data set [1] (setting [4]). For the same compound, the “Hindlimb Placing Total Score, individual animals” value in data set [1] (setting [5]) is 1.50 and 0.50 (3×) and 1.00 (3×) and 3.00 and 0.00 (2×); in data set [1] (setting [6]), 1.50 and 1.00 (3×) and 0.50 (2×) and 2.00 and 0.00 (3×). Further, the “Hindlimb Placing Total Score, Mean” value in data set [1] (setting [3]) was found to be 0.90; in data set [1] (setting [4]) it was 0.30; in data set [1] (setting [5]), 0.80; in data set [1] (setting [6]) it was 0.70. Moreover, the “Effect on hindlimb function (FIGS. 4A-D)” value in data set [1] (low or high dose, 4 weeks post ischemic brain injury, dose responsive, reversible) is reported as “effective to improve hindlimb function”. Moreover, the half life in data set [2] was 1 to 1.5 h. Also, the “potassium channel blocking activity” value with potassium channels (at high concentration (millimolar concentrations)) is on record as “broad-spectrum blocker of potassium channels”; with potassium channels (at plasma concentrations obtained in clinical studies (<1 microM)), “selective for certain types of these channels”.
